Results: patent publication US20100056522A1, “INTRAOCULAR PRESSURE-LOWERING AGENT COMPRISING COMPOUND HAVING HISTONE DEACETYLASE INHIBITOR EFFECT AS ACTIVE INGREDIENT” (Santen Pharmaceutical Co., Ltd., priority 2007, published 2010)

Assays:
[1] = test system: male Japanese White rabbits; experiment: Test for evaluation of intraocular pressure-lowering effect by intracameral administration; assay type: in vivo; settings: 1 mM administration liquid, 20 μL intracameral, 8 or 9 hours after administration, vs vehicle control group, 6 cases
Protocol: In order to evaluate an intraocular pressure-lowering effect of the present compounds, a test for evaluation of intraocular pressure-lowering effect by intracameral administration of a drug using male Japanese White rabbits was performed.
A test compound was dissolved or suspended in physiological saline containing 0.5% dimethyl sulfoxide, whereby a 0.1 mM or 1 mM test compound administration liquid was prepared.
One drop of 0.4% oxybuprocaine hydrochloride eye drop was instilled into both eyes of each male Japanese White rabbit to achieve local anesthesia, and thereafter, the intraocular pressure was measured using an applanation tonometer. Then, by using a syringe fitted with a 30-gauge needle, the test compound administration liquid (20 μL) was intracamerally administered to one eye. As a control, 20 μL of the vehicle (physiological saline containing 0.5% dimethyl sulfoxide) for the test compound was intracamerally administered. After the lapse of a certain period of time from the administration of the test compound or vehicle, one drop of 0.4% oxybuprocaine hydrochloride eye drop was instilled into the administered eye to achieve local anesthesia, and thereafter, the intraocular pressure was measured using an applanation tonometer.
The intraocular pressure-lowering effect of each test compound was evaluated by calculating an intraocular pressure reduction rate. The intraocular pressure reduction rate (%) was calculated using the following equation.
(Intraocular Pressure Reduction Rate(%))=100×[{(Average Value of Intraocular Pressure of Control Group)−(Average Value of Intraocular Pressure of Each Test Compound Administration Group)}/(Average Value of Intraocular Pressure of Control Group)]

[2] = test system: HDAC (HeLa nuclear extract); experiment: Test for evaluation of an HDAC inhibitory effect (HDAC Fluorimetric Assay/Drug Discovery Kit, Biomol); assay type: biochemical; settings: final concentration of test compound 30 μM, rates of more than 100% are shown as 100%
Protocol: Using HDAC Fluorimetric Assay/Drug Discovery Kit (manufactured by Biomol), an HDAC inhibitory effect of the present compounds was measured according to the protocol included with the kit. The kit contains Buffer, HeLa nuclear extract (includes an HDAC), Substrate, Developer and Trichostatin A (an HDAC inhibitor).
A test compound was dissolved in dimethyl sulfoxide, whereby a 2 mg/mL solution was prepared. Then, the resulting solution was diluted with Buffer containing 5% dimethyl sulfoxide, whereby a 150 μM test compound solution was prepared.
1) To a 384-well culture plate, the test compound solution was added in an amount of 2 μL per well.
2) HeLa nuclear extract was diluted 30-fold with Buffer. The resulting solution was added in an amount of 3 μL per well and then, incubation was performed at 37° C. for 2 hours.
3) Substrate was diluted 500-fold with Buffer. The resulting solution was added in an amount of 5 μL per well (the final concentration of the test compound was 30 μM) and then, incubation was performed at 37° C. for 10 minutes.
4) Developer was diluted 20-fold with Buffer and Trichostatin A (2 μM) was added to it. The resulting solution was added in an amount of 10 μL per well and then, incubation was performed at room temperature for 15 minutes.
5) The fluorescence intensity of each well was measured using multilabel counter ARVO (manufactured by Wallac) with excitation at 360 nm and emission at 460 nm.
6) A control data was obtained from the same experiment except that Buffer containing 5% DMSO was added instead of the test compound solution as the above-mentioned procedure from 1) to 5).
7) A blank data was obtained from the same experiment except that Buffer containing 5% DMSO was added instead of the test compound solution and that Buffer was added instead of Hela nuclear extract as the above-mentioned procedure from 1) to 5).
Enzyme inhibitory rate (%) was calculated using the following equation.
(Enzyme Inhibitory Rate(%))=100×[1−{(Fluorescence Intensity of Test Compound Solution)−(Florescence Intensity of Blank)}/{(Florescence Intensity of Control)−(Florescence Intensity of Blank)}]

[3] = test system: TM-1 cells (human trabecular meshwork cell line); experiment: Test for evaluation of effect of morphological change on trabecular meshwork cells (cell shape index); assay type: cell-based; settings: 10 μM, 24 hours, control CSI 0.679, lower CSI indicates greater morphological change
Protocol: As a method for evaluating a cellular morphological change, an evaluation system using the cell shape index (hereinafter referred to as “CSI”) as an index has been reported in The Journal of Clinical Investigation, 103, 1141-1150 (1999). Therefore, according to the method described in the above document, an effect of morphological change by the present compounds on trabecular meshwork cells was evaluated.
A human trabecular meshwork cell line (hereinafter referred to as “TM-1 cells”) reported in Investigative Opthalmology & Visual Science, 43, 151-161 (2002) was used.
Culture medium 1: A reagent was prepared by adding fetal bovine serum (10%), L-glutamine (2 mM), amphotericin B (2.5 μg/mL), and gentamicin (25 μg/mL) to Dulbecco's Modified Eagle Medium (hereinafter referred to as “D-MEM”).
Culture medium 2: Fetal bovine serum (3%), L-glutamine (2 mM), amphotericin B (2.5 μg/mL), and gentamicin (25 μg/mL) were added to D-MEM.
Cell staining liquid: A mixed liquid of Calcein-AM (16 μM) and Hoechst 33342 (40 μM) was prepared by diluting a Calcein-AM solution (cytoplasmic staining reagent, manufactured by Dojindo Laboratories) and a Hoechst 33342 solution (nuclear staining reagent, manufactured by Dojindo Laboratories) with D-MEM containing L-glutamine (2 mM), amphotericin B (2.5 μg/mL), and gentamicin (25 μg/mL).
TM-1 cells subcultured at 37° C. in a 8% carbon dioxide gas atmosphere were treated with a trypsin/EDTA solution (0.05% trypsin and 0.53 mM tetrasodium ethylenediaminetetraacetate) at 24 hours before performing a drug treatment mentioned below and seeded on a 96-well culture plate. The culture medium 1 was used for the subculture of the cells. The culture medium 2 was used for the cell culture after seeding the cells on the plate.
A test compound was dissolved in dimethyl sulfoxide, whereby a 5 mM solution was prepared. Then, the resulting solution was diluted with the culture medium 2, whereby a 200 μM test compound solution was prepared.
It has been reported that Y-27632 which is a Rho kinase inhibitor induces a morphological change in trabecular meshwork cells in Investigative Opthalmology & Visual Science, 42, 137-144 (2001). Therefore, Y-27632 (produced according to the method described in WO 90/05723) was used as a positive control, and dissolved in dimethyl sulfoxide in the same manner as the test compound, whereby a 5 mM solution was prepared, and then, the resulting solution was diluted with the culture medium 2, whereby a 200 μM positive control compound solution was prepared.
1) To a 96-well culture plate, a solution of TM-1 cells adjusted to a cell density of […] was added in an amount of 95 μL (1.5×10^4 cells) per well.
2) Incubation was performed at 37° C. in a 8% carbon dioxide gas atmosphere for 24 hours.
3) The test compound solution or positive control compound solution was added in an amount of 5 μL per well (the final concentration of the test compound or positive control compound was 10 μM). As a control, the culture medium 2 containing dimethyl sulfoxide (4%) was added in an amount of 5 μL per well.
4) Incubation was performed at 37° C. in a 8% carbon dioxide gas atmosphere for 24 hours.
5) The cell staining liquid was added in an amount of 10 μL per well.
6) Incubation was performed at 37° C. in a 8% carbon dioxide gas atmosphere for 1 hour to stain the cells.
7) A 37% formaldehyde solution was added in an amount of 10 μL per well.
8) Incubation was performed at room temperature for 1 hour to fix the cells.
9) Washing with phosphate-buffered saline was performed.
10) Using Array Scan Vti HCS reader (manufactured by Cellomics), images of stained cells magnified with a 20-fold objective lens were captured in 80 fields (10 fields×8 wells) per test compound addition group.
11) CSI was calculated for each cell and an average value was obtained for each test compound addition group.
CSI was calculated using the following equation.
CSI=4π×(Cell Area)/(Cell Perimeter)^2

| SMILES | Enzyme Inhibitory Rate (%) [2] [%] | Intraocular Pressure Reduction Rate (%) [1] [%] | CSI [3] |
| --- | --- | --- | --- |
| CN(C)c1ccc(C(=O)NCCCCCCC(=O)NO)cc1 [M 344, 4-Dimethylamino-N-(6-hydroxycarbamoylhexyl)benzamide, reference compound] | 99 |  | 0.500 |
| Nc1ccccc1NC(=O)c1ccc(CNc2nccc(-c3cccnc3)n2)cc1 [MGCD-0103 free base, N-(2-Aminophenyl)-4-[4-(pyridin-3-yl)pyrimidin-2-ylaminomethyl]benzamide, reference compound] | 96 | 23 | 0.584 |
| Nc1ccccc1NC(=O)c1ccc(CNC(=O)OCc2cccnc2)cc1 [MS 275, N-(2-Aminophenyl)-4-(pyridin-3-ylmethyloxycarbonylaminomethyl)benzamide, reference compound] | 99 | 13 | 0.552 |
| O=C(CCCCCCC(=O)Nc1ccccc1)NO [SAHA, N-Hydroxy-N′-phenyloctanediamide, reference compound] |  | 17 | 0.501 |
| CC(/C=C/C(=O)NO)=C\[C@@H](C)C(=O)c1ccc(N(C)C)cc1 [Trichostatin A, reference compound] | 100 | 18 | 0.496 |

Further lines, with some results ahead:

| Enzyme Inhibitory Rate (%) [2] [%] | SMILES | Intraocular Pressure Reduction Rate (%) [1] [%] | CSI [3] |
| --- | --- | --- | --- |
| 98 | CN(C)CCN(Cc1ccc(C(=O)Nc2ccccc2N)nc1)C(=O)Nc1nccs1 [Compound 1-96, N-(2-Aminophenyl)-5-[1-(2-dimethylaminoethyl)-3-(1,3-thiazol-2-yl)ureidomethyl]pyridine-2-carboxylic acid amide] | 18 | 0.489 |
| 98 | CN(C)c1ccc(NC(=O)N(CCCN2CCOCC2)Cc2ccc(C(=O)Nc3ccccc3N)nc2)cc1 [Compound 2-1, N-(2-Aminophenyl)-5-[3-(4-dimethylaminophenyl)-1-[3-(morpholin-4-yl)propyl]ureidomethyl]pyridine-2-carboxylic acid amide] |  | 0.574 |
| 100 | CCN(CC)c1ccc(NC(=O)N(CCCN(C)C)Cc2ccc(C(=O)Nc3ccccc3N)nc2)cc1 [Compound 2-3, N-(2-Aminophenyl)-5-[3-(4-diethylaminophenyl)-1-(3-dimethylaminopropyl)ureidomethy]pyridine-2-carboxylic acid amide] |  | 0.550 |
| 99 | Nc1ccccc1NC(=O)c1ccc(CN(CCO)C(=O)Nc2ccc3c(c2)OCCO3)cn1 [Compound 2-10, N-(2-Aminophenyl)-5-[3-(2,3-dihydrobenzo[1,4]dioxin-6-yl)-1-(2-hydroxyethyl)ureidomethyl]pyridine-2-carboxylic acid amide] |  | 0.582 |
| 65 | Cc1ccc(C(=O)c2cc(/C=C/C(=O)NO)n(C)c2)cc1 [MC1293, (E)-N-Hydroxy-3-[1-methyl-4-(4-methylbenzoyl)-1H-pyrrol-2-yl]-2-propenamide, reference compound] |  | 0.628 |
